pIC50: −log10 of the molar value.
Assays:
CDK6/Cyclin D1 = CDK6/Cyclin D1 (Homo sapiens (Human), UniProt Q00534); assay: CDK6/CyclinD1 enzymatic activity assay (TR-FRET); assay type: biochemical; details: ATP 250 μM, read-out: CDK6_D1 IC50
In short: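 Insect-cell-expressed CDK6/Cyclin D1 (1 nM) phosphorylated ULight-4E-BP1 (100 nM) with 250 μM ATP in HEPES pH 7.4 buffer. After 20 min compound preincubation, reactions were started with 10 mM MgCl2 and run 60 min at 37 °C. EDTA-quenched samples were read by TR-FRET with Eu-anti-P-4E-BP1; IC50 from 9-dose 4-parameter fits.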

CDK4/Cyclin D1 = CDK4/Cyclin D1 (Homo sapiens (Human), UniProt P11802); assay: CDK4/CyclinD1 enzymatic activity assay (TR-FRET); assay type: biochemical; details: ATP 2 mM, read-out: CDK4_D1 IC50
CDK4/Cyclin D1, sequence (P11802 whole entry): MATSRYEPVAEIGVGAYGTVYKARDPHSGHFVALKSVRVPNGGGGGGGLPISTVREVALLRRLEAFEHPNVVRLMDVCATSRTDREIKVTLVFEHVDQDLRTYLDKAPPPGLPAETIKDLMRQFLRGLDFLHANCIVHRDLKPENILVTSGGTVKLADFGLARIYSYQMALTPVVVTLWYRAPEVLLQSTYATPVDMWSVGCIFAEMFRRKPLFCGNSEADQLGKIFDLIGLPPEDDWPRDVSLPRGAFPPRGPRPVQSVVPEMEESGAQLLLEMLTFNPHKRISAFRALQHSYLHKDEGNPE
CDK4/Cyclin D1, sequence (P24385 whole entry partner): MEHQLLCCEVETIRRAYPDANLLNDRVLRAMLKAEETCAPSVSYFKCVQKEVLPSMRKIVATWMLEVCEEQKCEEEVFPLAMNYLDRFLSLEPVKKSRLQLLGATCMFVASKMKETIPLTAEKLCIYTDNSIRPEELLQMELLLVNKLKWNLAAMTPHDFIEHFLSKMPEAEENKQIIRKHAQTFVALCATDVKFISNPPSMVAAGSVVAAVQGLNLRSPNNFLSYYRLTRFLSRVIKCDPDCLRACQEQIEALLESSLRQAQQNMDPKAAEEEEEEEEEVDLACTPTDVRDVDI
In short: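 Insect-cell CDK4/Cyclin D1 (1 nM) with ULight-4E-BP1 (100 nM) and 2 mM ATP in HEPES pH 7.4 buffer, preincubated 20 min with compound (9-dose, 3-fold dilutions); 10 mM MgCl2 started the reaction, run 60 min at 37 °C. EDTA/Eu-anti-phospho-4E-BP1 TR-FRET detection; IC50 from 4-parameter Hill fit.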

[1] = test system: MCF7 adenocarcinoma cell line; assay: Cell proliferation studies in MCF7 cells (ATP-Lite, 10 days); assay type: cell-based; details: Homo sapiens, 240 h, read-out: PROLIFERATION_CTG_MCF7 IC50
In short: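 Cells were seeded at 100 or 200 per well in DMEM with 10% FBS and dosed in quadruplicate over a 9-point 3-fold dilution. Incubation lasted 10 days at 37 °C, with media exchange and re-dosing on day 5. Viability was read by ATP-Lite luminescence and normalised to background and DMSO, giving IC50.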

[2] = Brain-to-plasma ratio (Kp) determination in Sprague-Dawley rats; details: male, rat, brain (homogenate) versus plasma, po, 10 mg/kg
Procedure: The brain-to-plasma ratio (Kp) was determined in male Sprague-Dawley rats (7-9 weeks old) four hours after a single oral dose. Rats were acclimated and given free access to standard rodent chow and water throughout the entire study. Test articles were formulated as a solution at 0.3, 0.4, 0.5, or 1.0 mg/mL in a vehicle comprised of 10:15:75 (v:v:v) dimethylacetamide (DMA):Solutol HS15:water and delivered orally at a rate of 10 mL/kg to three rats to achieve final doses of 3, 4, 5, or 10 mg/kg, respectively. At 4 hours post-dose, blood samples were collected via jugular vein cannula into tubes containing K2EDTA as the anticoagulant and stored on ice. Blood samples were then centrifuged at 4° C. at 6000 rpm for 5 minutes, and the resulting plasma was placed into tubes and stored frozen at −80° C. until analysis. Whole brain samples were also collected at 4 hours post-dose. The weight of each brain was measured and recorded, and samples were immediately stored on dry ice. Brain samples were then transferred to storage at −80° C. until analysis.
Prior to analysis, brain samples were combined with water (4 mL/1 gram of brain) and homogenized. Prior to injection, plasma and brain homogenate samples and standards were prepared for analysis by precipitation with acetonitrile or 1:1 (v:v) methanol:acetonitrile. Samples were then thoroughly mixed, centrifuged at 4000 rpm for 15 minutes, and the resulting supernatant was transferred for analysis. Test article concentrations in plasma and brain homogenate were then determined by LC-MS/MS and quantified against calibration standards prepared to known concentrations in matched blank (analyte-free) biological matrix. The Kp was then determined by dividing the dilution-corrected brain concentration by the plasma concentration from each rat. A brain density of 1 gram/mL was assumed for all calculations.

CDK6/Cyclin D1, sequence (Q00534 whole entry): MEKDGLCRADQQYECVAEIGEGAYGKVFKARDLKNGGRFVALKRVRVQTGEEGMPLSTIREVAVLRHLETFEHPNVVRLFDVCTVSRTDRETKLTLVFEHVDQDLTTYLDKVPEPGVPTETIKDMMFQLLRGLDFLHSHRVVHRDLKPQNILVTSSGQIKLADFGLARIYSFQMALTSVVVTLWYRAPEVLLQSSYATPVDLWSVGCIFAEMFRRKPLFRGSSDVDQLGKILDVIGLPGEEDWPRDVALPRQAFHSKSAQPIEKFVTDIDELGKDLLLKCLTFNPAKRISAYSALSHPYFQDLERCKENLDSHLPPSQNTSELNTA
CDK6/Cyclin D1, sequence (P24385 whole entry partner): as the sequence (P24385 whole entry partner) above

## Cc1nc2cc(-c3nc(Nc4ccc(C5CCN(C)CC5)cn4)ncc3C(F)(F)F)sc2n1C(C)C [Example 120, 4-(3-Isopropyl-2-methyl-3H-thieno[2,3-d]imidazol-5-yl)-N-(5-(1-methylpiperidin-4-yl)pyridin-2-yl)-5-(trifluoromethyl)pyrimidin-2-amine]
CDK6/Cyclin D1
  pIC50: ≥ 7.70
CDK4/Cyclin D1
  pIC50: ≥ 7.70
[1]
  pIC50: 6.70 to 7.70
[2]
  Kp at 4 h: 1 to 3

## Cc1c(-c2nc(Nc3ccc(C4CCN(C)CC4)cn3)ncc2F)sc2c(C(C)C)cncc12 [Example 123, 5-Fluoro-N-[5-(1-methylpiperidin-4-yl)pyridin-2-yl]-4-(3-methyl-7-propan-2-ylthieno[3,2-c]pyridin-2-yl)pyrimidin-2-amine]
CDK6/Cyclin D1
  pIC50: 6.70 to 7.70
CDK4/Cyclin D1
  pIC50: ≥ 7.70
[1]
  pIC50: 6.70 to 7.70
[2]
  Kp at 4 h: > 3

## CCN1CCN(Cc2ccc(Nc3ncc(F)c(-c4sc5c(ncn5C(C)C)c4C)n3)nc2)CC1 [Example 124, N-[5-[(4-Ethylpiperazin-1-yl)methyl]pyridin-2-yl]-5-fluoro-4-(6-methyl-3-propan-2-ylthieno[2,3-d]imidazol-5-yl)pyrimidin-2-amine]
CDK6/Cyclin D1
  pIC50: ≥ 7.70
CDK4/Cyclin D1
  pIC50: ≥ 7.70
[1]
  pIC50: 6.70 to 7.70
[2]
  Kp at 4 h: 1 to 3

## CCN1CCC(c2ccc(Nc3ncc(F)c(-c4sc5c(ncn5C(C)C)c4C)n3)nc2)CC1 [Example 128, N-(5-(1-Ethylpiperidin-4-yl)pyridin-2-yl)-5-fluoro-4-(3-isopropyl-6-methyl-3H-thieno[2,3-d]imidazol-5-yl)pyrimidin-2-amine]
CDK6/Cyclin D1
  pIC50: ≥ 7.70
CDK4/Cyclin D1
  pIC50: ≥ 7.70
[1]
  pIC50: ≥ 7.70
[2]
  Kp at 4 h: 1 to 3

## CCN1CC2(C1)CN(c1ccc(Nc3ncc(F)c(-c4cc5ncn(C(C)C)c5s4)n3)nc1)C2 [Example 129, N-(5-(6-ethyl-2,6-diazaspiro[3.3]heptan-2-yl)pyridin-2-yl)-5-fluoro-4-(3-isopropyl-3H-thieno[2,3-d]imidazol-5-yl)pyrimidin-2-amine]
CDK6/Cyclin D1
  pIC50: ≥ 7.70
CDK4/Cyclin D1
  pIC50: ≥ 7.70
[1]
  pIC50: ≥ 7.70
[2]
  Kp at 4 h: 1 to 3

## Cc1c(-c2nc(Nc3ccc(C4CCCN(C)C4)cn3)ncc2Cl)sc2c1ncn2C(C)C (stereo not drawn) [Example 130, 5-Chloro-4-(3-isopropyl-6-methyl-3H-thieno[2,3-d]imidazol-5-yl)-N-(5-(1-methylpiperidin-3-yl)pyridin-2-yl)pyrimidin-2-amine]
CDK6/Cyclin D1
  pIC50: 6.70 to 7.70
CDK4/Cyclin D1
  pIC50: ≥ 7.70
[1]
  pIC50: 6.70 to 7.70
[2]
  Kp at 4 h: 1 to 3
